System: C. albicans ATCC 24433
Test: Checkerboard MIC assay, FICI
Assay type: cell-based, Candida albicans
Details: combination with Compound 1; C. albicans ATCC 24433
Excerpt: The following assay was used to determine the minimum inhibitory concentration (MIC) and fractional inhibitory concentration index (FICI) for combinations of an antifungal agent and a glycopeptide antibacterial agent. This assay and methods for calculating FICI are well known in the art. See, for example, Eliopoulos, E. G. and R. Moellering, Jr. “Antimicrobial Combinations” in Antibiotics in Laboratory Medicine, edited by V. Lorian, 4th Ed., Williams & Wilkins, Baltimore, MD, pp. 330-396 (1996); […] et al., Antimicrobial Agents and Chemotherapy 47(4):1416-1418 (2003); or […] et al., Antimicrobial Agents and Chemotherapy 46(10):3323-3326 (2002). Procedures, protocols, supplies and equipment used in this assay follow the recommendations approved and published by the National Committee for Clinical Laboratory Standards (NCCLS), Wayne, Pa. as described in NCCLS 2003, “Reference Method for Broth Dilution Antimicrobial Susceptibility Tests for Bacteria that Grow Aerobically; Approved Standard” (NCCLS document M7-A6); NCCLS 2002, “Reference Method for Broth Dilution Antifungal Susceptibility Tests of Filamentous Fungi that Grow Aerobically; Approved Standard” (NCCLS document M38-A); and NCCLS 2002 “Reference Method for Broth Dilution Antifungal Susceptibility Tests of Yeast; Approved Standards-2nd Edition” (NCCLS document M27-A2). Using a checkerboard method, a 2-fold dilution 100× final concentration master plate was prepared using a 96-well U-shape microtiter plate and an appropriate solvent. In the “checkerboard” method, a microtiter plate is divided into “columns” in which each well in the column contains the same amount of an antifungal agent (Compound A) being diluted along the x-axis, and “rows” in which each well in the row contains the same amount of a glycopeptide antibacterial agent (Compound B) being diluted on the y-axis. Also included is a row (or column) for Compound A or B alone. The dilutions used in the checkerboard are exponential (by powers of two). The result is that each well in the microtiter plate contains a unique concentration of the two compounds being tested. […] After mixing, 100 μL of 2× drug combinations were distributed into 96-well microtiter plates. […] Compound A was not added to Column 12, so Column 12 contained only Compound B. Compound B was diluted from row A starting at 6,400 μg/mL down to row G (100 μg/mL). Wells in Row A contained a final concentration of 64 μg/mL of Compound B; Row B contained a final concentration of 32 μg/mL of Compound B; Row C contained a final concentration of 16 μg/mL of Compound B; etc. Compound B was not added to Row H, so Row H only contained Compound A. […] The MIC of the glycopeptide antibacterial agent determined from this experiment was used in FIC calculations. […] RPMI-1640 without sodium bicarbonate media (GIBCO-BRL, Carlsbad, Calif.), an enriched media formulated for mammalian cells, was used according to the NCCLS guidelines for yeast and filamentous fungi susceptibility testing. The medium was buffered with 0.165 M 3-[N-Morpholino]propanesulfonic acid (MOPS) supplemented with 20 g/L glucose and pH adjusted to 7.0 with hydrogen chloride. Sabouraud Dextrose Agar ([…] plates, and Potato Dextrose Agar (PDA) plates were purchased from Hardy Diagnostic (Santa Maria, Calif.). Yeast cultures were started from -80° C. frozen stock streaked on […] incubated at 35° C. under aerobic conditions for 24 h. The […] in the refrigerator for up to 2 weeks and used regularly as a starting culture. About 24 to 48 h before each assay was run, yeasts were streaked on SDA plates for isolated colonies. To prepare the inoculum, from one to four colonies were resuspended in 5 mL of saline, and vortexed for 15 sec. […] For most yeast and mold cultures, the optical density (OD) of the suspension was adjusted to 0.11 in saline to provide 0.4×10^6 CFU/mL. However, for Fusarium moniliforme and Pseudallescheria boydii the OD of the suspension was adjusted to OD=0.17 to provide 0.4×10^6 CFU/mL. […]

Row | Compound | FICI
1 | C[C@@H]1[C@H](O)[C@@H](C)/C=C/C=C/C=C/C=C/C=C/C=C/C=C/[C@H](O[C@@H]2O[C@H](C)[C@@H](O)[C@H](N)[C@@H]2O)C[C@@H]2O[C@](O)(C[C@@H](O)C[C@@H](O)[C@H](O)CC[C@@H](O)C[C@@H](O)CC(=O)O[C@H]1C)C[C@H](O)[C@H]2C(=O)O [Amphotericin B] | 0.19
2 | C[C@@H]1[C@H](O)[C@@H](C)/C=C/C=C/CC/C=C/C=C/C=C/C=C/C(O[C@H]2O[C@H](C)[C@@H](O)[C@H](N)[C@@H]2O)CC2O[C@](O)(CC(O)C(O)CCC(O)CC(O)CC(O)CC(=O)O[C@H]1C)CC(O)C2C(=O)O (some centres unmarked) [Nystatin] | 0.31

Reference: patent US7521418B2, “Use of a polyene macrolide antifungal agent in combination with a glycopeptide antibacterial agent” (Theravance, Inc., priority 2003, dated 2009)
